# Data: patent US11192852B2, “Pyrazolyl and pyrimidinyl tricyclic enones as antioxidant inflammation modulators” (REATA PHARMACEUTICALS, INC., priority 2010, dated 2021)
# System: IFNγ-induced NO production in RAW264.7 mouse macrophages
# Assay: Suppression of IFNγ-induced nitric oxide production (Griess reagent)
# Assay type: cell-based
# Conditions: Mus musculus, RAW264.7, RAW264.7 cells, 2 h pre-treatment (0-200 nM), then IFNγ 24 h; normalized to cell viability
# Description: Nitric Oxide Production and Cell Viability.
row,SMILES,IC50 [nM]
1,Cn1nc2c(c1-c1cccc(Cl)c1)CC[C@H]1C(C)(C)C(=O)C(C#N)=C[C@]21C [TX63485],34
2,CC1(C)C(=O)C(C#N)=C[C@]2(C)c3nc(C(F)(F)F)ncc3CC[C@@H]12 [TX63567],43
3,COc1ncnc2c1CC[C@H]1[C@H](C)C(=O)C(C#N)=C[C@]21C [TX63874],5.5
4,Cn1nc2c(c1-c1ccccc1)CC[C@H]1C(Cc3ccccc3)(Cc3ccccc3)C(=O)C(C#N)=C[C@]21C [TX63601],150
5,CC1(C)C(=O)C(C#N)=C[C@]2(C)C(=O)c3cnn(C(C)(C)C)c3C[C@@H]12 [TX63451],137
6,C[C@@H]1C(=O)C(C#N)=C[C@]2(C)c3nn(C)c(-c4ccccc4F)c3CC[C@@H]12 [TX63721],7.8
7,Cc1nc(-c2c3c(nn2C)[C@@]2(C)C=C(C#N)C(=O)C(C)(C)[C@@H]2CC3)no1 [TX63723],35
8,C[C@@H]1C(=O)[C@]2(C#N)O[C@@H]2[C@]2(C)c3nn(C)c(-c4ccccc4)c3CC[C@@H]12 [TX63848],9.5
9,CC1(C)C(=O)C(C#N)=C[C@]2(C)[C@@H](O)CCC[C@@H]12 [TX63363],> 200
10,C[C@@H]1C(=O)C(C#N)=C[C@]2(C)c3nn(C)c(Br)c3CC[C@@H]12 [TX63606],11
11,Cn1nc2c(c1-c1ccc(Cl)cc1)CC[C@H]1C(C)(C)C(=O)C(C#N)=C[C@]21C [TX63486],48
12,Cn1nc2c(c1-c1ccccc1)CC[C@H]1CC(=O)C=C[C@]21C [TX63570],> 200
13,CC1(C)C(=O)C(C#N)=C[C@]2(C)c3nn(-c4ccccc4)cc3CC[C@@H]12 [TX63455],109
14,CC1(C)C(=O)C(C#N)=C[C@]2(C)c3nc(-c4ccccc4Cl)ncc3CC[C@@H]12 [TX63612],43
15,COc1cccc(-c2c3c(nn2C)[C@@]2(C)C=C(C#N)C(=O)[C@@H](C)[C@@H]2CC3)c1 [TX63664],8
16,C[C@@H]1C(=O)C(C#N)=C[C@]2(C)c3nn(C)c(N4C(=O)NC(C)(C)C4=O)c3CC[C@@H]12 [TX63776],> 200
17,COC(=O)n1cc2c(n1)[C@@]1(C)C=C(C#N)C(=O)C(C)(C)[C@@H]1CC2 [TX63462],147
18,CCOC(=O)c1nc(OC)c2c(n1)[C@@]1(C)C=C(C#N)C(=O)[C@@H](C)[C@@H]1CC2 [TX63730],16
19,CC[C@@H]1C(=O)C(C#N)=C[C@]2(C)c3nn(C)cc3CC[C@@H]12 [TX63589],44
20,CC1(C)C(=O)C(C#N)=C[C@]2(C)c3nn(-c4[nH]nc5c4CC[C@H]4C(C)(C)C(=O)C(C#N)=C[C@]54C)cc3CC[C@H]12 [TX63466],10.4
21,Cn1nc2c(c1-c1ccc(F)cc1)CC[C@H]1C(C)(C)C(=O)C(C#N)=C[C@]21C [TX63507],39
22,Cn1nc2c(c1-c1cccc3ccccc13)CC[C@H]1C(C)(C)C(=O)C(C#N)=C[C@]21C [TX63603],61
23,CC(=O)n1cc2c(n1)[C@@]1(C)C=C(C#N)C(=O)C(C)(C)[C@@H]1CC2 [TX63463],≥ 205
24,C[C@@H]1C(=O)C(C#N)=C[C@]2(C)c3nn(C)c(-c4cn(C)[n+]([O-])c4)c3CC[C@@H]12 [TX63849],> 200
25,CC1(C)C(=O)C(C#N)=C[C@]2(C)c3nc4c(Br)cnn4cc3CC[C@@H]12 [TX63617],33
26,Cn1ncc2c1[C@@]1(C)C=C(C#N)C(=O)C(C)(C)[C@@H]1CC2 [TX63342],180
27,Cc1cccc(-c2c3c(nn2C)[C@@]2(C)C=C(C#N)C(=O)[C@@H](C)[C@@H]2CC3)c1 [TX63650],6.1
28,Cn1cc2c(n1)[C@@]1(C)C=C(C#N)C(=O)C(C)(C)[C@@H]1C2 [TX63559],> 200
29,CC(=O)n1nc2c(c1-c1ccccc1)CC[C@H]1[C@H](C)C(=O)C(C#N)=C[C@]21C [TX63850],8.9
30,C[C@@H]1C(=O)C(C#N)=C[C@]2(C)c3nn(C)c(-c4nnn(C)n4)c3CC[C@@H]12 [TX63719],5.9

# Same assay, conditions: RAW264.7 cells, 2 h pre-treatment (0-200 nM), then IFNγ 24 h; normalized to cell viability
row,SMILES,IC50 [nM]
1,Cn1cc2c(n1)[C@@]1(C)C=C(C#N)C(=O)C(C)(C)[C@@H]1CC2 [TX63432],166
